From US20240325364A1, “COMPOSITIONS FOR USE IN THE TREATMENT OF METABOLIC SYNDROME” (Nottingham Trent University, priority 2021, published 2024)
Entries after “also recorded” stand apart in the source; their conditions may differ.

Assays:
[1] = tested on: C2C12 skeletal muscle cells; test: Toxicity testing: C2C12 cell viability (Calcein AM fluorescence); type: cell-based; details: C2C12 myotubes cultured 5 days in GLT RPMI-1640 medium (28 mM glucose, 200 μM palmitic acid, 200 μM oleic acid) with 100 μM compound
Experimental: C2C12 muscle cell myotubes were cultured for 5 days in the following […] culture media: a control RPMI-1640 medium; glucolipotoxic (GLT) RPMI-1640 medium (28 mM glucose, 200 μM palmitic acid and 200 μM oleic acid) supplemented with 100 μM of M4; GLT RPMI-1640 medium supplemented with 100 µM of M8; GLT RPMI-1640 medium supplemented with 100 μM of M14; GLT RPMI-1640 medium supplemented with 100 μM of M28; and GLT RPMI-1640 medium supplemented with 100 μM of M38. Following culture, media were aspirated and cells washed 3 times in Krebs-Ringer buffer (KRB). A final concentration of […] Calcein AM Cell Viability Dye (ThermoFischer) in KRB was loaded for 1 h before washing again with KRB. Cell viability was measured via fluorescence, with excitation and emission at 490 nm and 520 nm, respectively.

[2] = tested on: C2C12 skeletal muscle cells; test: Reactive species scavenging in C2C12 cells (DCFDA fluorescence); type: cell-based; details: C2C12 cells in GLT RPMI-1640 medium 5 days, 100 μM compound
Experimental: C2C12 muscle cell myotubes were cultured for 5 days in standard RPMI-1640 tissue culture media or GLT RPMI-1640 media. Corresponding media were independently supplemented with 100 μM of a compound (M4, M14, M8, M28, and M38 investigated). Non-supplemented standard and GLT RPMI-1640 media were also retained as controls. Cells were thereafter washed 3 times in KRB and 20 μM 2′,7′-dichlorofluorescein diacetate (DCFDA), a cell permeant fluorogenic dye that measures hydroxyl, peroxyl and other ROS, was loaded for 1 h. Reactive species detection was measured via fluorescence, with excitation at 495 nm and emission at 530 nm.

[3] = tested on: C2C12 skeletal muscle cells; test: Glucose uptake (2-deoxy glucose) in C2C12 skeletal muscle cells; type: cell-based; details: C2C12 cells 5 days in GLT DMEM medium with 100 μM compound; 100 nM insulin 1 h
Experimental: C2C12 skeletal muscle cell myotubes were cultured for 5 days in standard DMEM tissue culture media or GLT DMEM media. The media were either used without further supplementation (used as controls) or were independently supplemented with 100 μM of a compound (M4, M8, M14, M28, and M38 investigated). Myotubes were then serum-starved overnight in DMEM supplemented with 5 mM glucose, and thereafter incubated for 1 h in glucose-free DMEM or in glucose-free DMEM supplemented with 100 nM insulin stimulant. The media were thereafter replaced with phosphate buffered saline (PBS) containing 0.125 mM 2-deoxy glucose (2-DG). Glucose uptake reactions were conducted for 30 min, and then terminated by addition of stop buffer (0.4 M HCl+2% dodecyl trimethyl ammonium bromide). 2-deoxyglucose-6-phosphate (2DG6P) detection reagent was applied, and data were acquired using a CLARIOStar luminometer (BMG Labtech, Ortenberg, Germany).

High fat-fed mice = test: Effect on body weight in an in vivo model of obesity; details: high fat diet mice, 45 mg/kg body weight/day via drinking water, 10 weeks
Experimental: High fat-fed mice were used as an animal model of obesity. The body weights of the mice were monitored over a period of 10 weeks. The following three sets of mice were used in the study: • Non-high fat-fed mice that were administered a normal diet. • High fat-fed mice that were administered a high fat diet. • High fat-fed mice that were administered a high fat diet alongside 45 mg/kg body weight/day of compound M8, which was administered via drinking water.
High fat-fed mice were fed the following high fat diet from Research Diets: (60% fat; D12492). Non-high fat-fed mice were used as a control and were fed the following low fat diet from Research Diets: (10% fat, D12450B). The body weights of the mice were measured throughout.

Compound | cell viability (% change relative to control) [1] | intracellular reactive species (% change relative to control) [2] | insulin-stimulated glucose uptake per total cellular protein [3] | toxic effects on the animals (High fat-fed mice) | body weight (High fat-fed mice; vs high fat-fed mice without compound, 45 mg/kg/day)
CNCc1ccc(-c2ccco2)nc1 [M8, 6-(2-furanyl)-N-methyl-3-pyridinemethanamine] | none of the tested compounds (M4, M8, M14, M28, and M38) reduce C2C12 skeletal muscle cell viability; also recorded: non-toxic to the cells | reduces GLT-associated reactive species levels | reverse glucolipotoxic inhibition of insulin-stimulated glucose uptake | no toxic effects on the animals | significantly reduces the body weight; also recorded: significant reduction of body weight
NCc1cc(-c2ccccc2)no1 [M28, (3-phenyl-5-isoxazolyl)methanamine] | none of the tested compounds (M4, M8, M14, M28, and M38) reduce C2C12 skeletal muscle cell viability; also recorded: non-toxic to the cells | reduces GLT-associated reactive species levels | reverse glucolipotoxic inhibition of insulin-stimulated glucose uptake |  | 
FC(F)(F)c1ccc(-n2ccnc2)nc1 [M4, 2-(1H-imidazol-1-yl)-5-(trifluoromethyl)pyridine] | none of the tested compounds (M4, M8, M14, M28, and M38) reduce C2C12 skeletal muscle cell viability; also recorded: non-toxic to the cells | reduces GLT-associated reactive species levels | reverse glucolipotoxic inhibition of insulin-stimulated glucose uptake |  | 
CNCc1cc(-c2ccccc2)no1 [M14, 5-[(methylamino)methyl]-3-phenylisoxazole] | none of the tested compounds (M4, M8, M14, M28, and M38) reduce C2C12 skeletal muscle cell viability; also recorded: non-toxic to the cells | reduces GLT-associated reactive species levels | reverse glucolipotoxic inhibition of insulin-stimulated glucose uptake |  | 
OCc1ccc(Cn2ccnc2)cc1 [M38, [4-(1H-imidazol-1-ylmethyl)phenyl]methanol] | none of the tested compounds (M4, M8, M14, M28, and M38) reduce C2C12 skeletal muscle cell viability; also recorded: non-toxic to the cells | reduces GLT-associated reactive species levels | reverse glucolipotoxic inhibition of insulin-stimulated glucose uptake |  | 
